In brackets after ≈: the same amount, converted by molar mass. Activity calls are given as the source filed them. The calls are words filed in the database; no cut-off is given here.
Assays:
Aspergillus fumigatus [1] = assay: Antifungal activity against Aspergillus fumigatus ATCC 16424 after 48 hrs by broth dilution method; type: functional; conditions: ATCC 16424, 48 h
Cryptococcus neoformans [2] = assay: Antifungal activity against Cryptococcus neoformans ATCC 36556 after 48 hrs by broth dilution method; type: functional; conditions: ATCC 36556, 48 h
Nakaseomyces glabratus [3] = assay: Antifungal activity against Candida glabrata ATCC 48435 after 48 hrs by broth dilution method; type: functional; conditions: ATCC 48435, 48 h
Aspergillus fumigatus [4] = assay: Antifungal activity against Aspergillus fumigatus ATCC 16424 at 128-0.01 ug/ml by spectroscopy analysis; type: functional, organism-based
Candida albicans [5] = assay: Antifungal activity against Candida albicans ATCC 10231 at 128-0.01 ug/ml spectroscopy analysis; type: functional, organism-based
Nakaseomyces glabratus [6] = assay: Antifungal activity against Candida glabrata ATCC 48435 at 128-0.01ug/ml spectroscopy analysis; type: functional, organism-based
Cryptococcus neoformans [7] = assay: Antifungal activity against Cryptococcus neoformans ATCC 36556 at128-0.01 ug/ml spectroscopy analysis; type: functional, organism-based
Candida albicans [8] = assay: Antifungal activity against Candida albicans ATCC 10231 after 48 hrs by broth dilution method; type: functional; conditions: ATCC 10231, 48 h

Row | MIC (Cryptococcus neoformans [2]) | MIC (Aspergillus fumigatus [1]; read-out: MIC) | Compound | growth inhibition (GI) (Aspergillus fumigatus [4]) | growth inhibition (GI) (Candida albicans [5]) | other results
1 | 32 µg/mL (≈ 79.1 µM) |  | CC(C)CCC[C@@H](C)[C@H]1CC[C@H]2[C@@H]3CC[C@H]4C[C@@H](O)[C@H](O)C[C@]4(C)[C@H]3CC[C@]12C |  |  | 
2 |  | 8 µg/mL (≈ 13.2 µM) | CC(C)CCC[C@@H](C)[C@H]1CC[C@H]2[C@@H]3CC[C@H]4C[C@@H](OC(=O)CCC(=O)O)[C@H](OC(=O)CCC(=O)O)C[C@]4(C)[C@H]3CC[C@]12C | Active |  | MIC (Nakaseomyces glabratus [3]): 32 µg/mL (≈ 52.9 µM)
3 |  | 1 µg/mL (≈ 3.01 µM) | CC(=O)O[C@@H]1C[C@@]2(C)[C@@H](CC[C@H]3[C@@H]4CCC[C@@]4(C)CC[C@@H]32)CC1=O |  |  | MIC (Candida albicans [8]): 0.125 µg/mL (≈ 0.376 µM)
4 | 4 µg/mL (≈ 8.95 µM) |  | CC(=O)O[C@@H]1C[C@@]2(C)[C@@H](CC[C@@H]3[C@@H]2CC[C@]2(C)[C@@H]([C@H](C)CCCC(C)C)CC[C@@H]32)C[C@H]1O |  |  | 

More lines, now with the values behind:

Row | Compound | MIC (Cryptococcus neoformans [2]) | MIC (Aspergillus fumigatus [1]; read-out: MIC) | growth inhibition (GI) (Aspergillus fumigatus [4]) | growth inhibition (GI) (Candida albicans [5]) | other results
5 | CC(=O)O[C@]12C[C@@H]3CC[C@@H]4[C@H](CC[C@]5(C)[C@@H]([C@H](C)CCCC(C)C)CC[C@@H]45)[C@@]3(C)C[C@H]1O2 |  |  |  |  | MIC (Aspergillus fumigatus [1]): 8 µg/mL (≈ 18 µM)
6 | CC(=O)O[C@@H]1C[C@@]2(C)[C@@H](CC[C@@H]3[C@@H]2CC[C@]2(C)[C@@H]([C@H](C)CCCC(C)C)CC[C@@H]32)CC1=O |  |  |  | Active | MIC (Aspergillus fumigatus [1]): 128 µg/mL (≈ 288 µM)
7 | CC(=O)O[C@@H]1C[C@@]2(C)[C@@H](CC[C@@H]3[C@@H]2CC[C@]2(C)[C@@H]([C@H](C)CCCC(C)C)CC[C@@H]32)C[C@H]1OC(=O)CCC(=O)O | 8 µg/mL (≈ 14.6 µM) | 2 µg/mL (≈ 3.66 µM) |  |  | 
8 | CC(C)CCC[C@@H](C)[C@H]1CC[C@H]2[C@@H]3CC[C@H]4C[C@@H](O)CC[C@]4(C)[C@H]3CC[C@]12C |  |  | Active | Active | growth inhibition (GI) (Nakaseomyces glabratus [6]): Active; growth inhibition (GI) (Cryptococcus neoformans [7]): Active
9 | CC(=O)O[C@]12C[C@@H]3CC[C@H]4[C@@H]5CCC[C@@]5(C)CC[C@@H]4[C@@]3(C)C[C@H]1O2 |  |  |  |  | MIC (Candida albicans [8]): 4 µg/mL (≈ 12 µM)
10 | C[C@@]12CCC[C@H]1[C@@H]1CC[C@H]3C[C@@H](O)CC[C@]3(C)[C@H]1CC2 |  |  | Active | Active | growth inhibition (GI) (Nakaseomyces glabratus [6]): Active; growth inhibition (GI) (Cryptococcus neoformans [7]): Active

Reference: ChEMBL document CHEMBL1287729, “Novel and efficient synthesis and antifungal evaluation of 2,3-functionalized cholestane and androstane derivatives” (2010)
